Consider 1 molecule from patent publication US11471460B2, “Autophagy modulators for use in treating cancer” (The United States of America,as represented by the …, priority 2017, dated 2022).

Molecules are shown by their SMILES.

The nature of the series: Viability of A375 cells after pretreatment, trypan blue exclusion. The settings on record: human, A375 melanoma cells, vehicle 94%, read-out: Viable cells after pretreatment. It counts as cell-based. The text has this: Viability was quantified by trypan blue dye exclusion method. The images confirmed the presence of cytoplasmic vacuolization occurred only in the compound 1 treated cells. […] The left flank received cells pretreated with vehicle and the right flank received cells pretreated with compound 1. At 27 days later, mice were photographed, and tumors excised. […] Error bars indicate the SEM for 5 tumors.
To determine whether or not compound 1 could inhibit progression of a tumor that arose from autophagy-dependent cancer cells, melanoma A375 cells were pretreated with either vehicle or compound 1 and then assayed for their ability to produce a tumor. Pretreatment consisted of culturing A375 cells for 8 hours with 10 μM compound 1. The cells were then recovered by trypsinization and their viability confirmed by trypan blue exclusion. […] The cells were then inoculated subcutaneously into the flanks of immuno-compromised mice.

For the molecule `C1=Nc2ccccc2/C1=C/NNc1nc(Nc2ccccc2)nc(N2CCOCC2)n1` [compound 1], the viability at 8 h, 10 µM is 92%.
